Reference: article PMC12713093, “Hepatitis E Virus ORF1 Polyprotein Harbors a Pocket‐Like Cavity That Is Vital for Virus Replication and Represents a Novel Antiviral Target” (Advanced Science, 2025)

Target: T1, X-RdRp protein (HEV ORF1 X to RdRp domains, forming the 'pocket-like' cavity, PC) (Hepatitis E virus US2, UniProt Q9YLR1)
T1 construct: X-RdRp fragment of ORF1 polyprotein (X 850-998, Hel 1002-1279, RdRp 1298-1765)
T1 sequence (Q9YLR1 793-1708): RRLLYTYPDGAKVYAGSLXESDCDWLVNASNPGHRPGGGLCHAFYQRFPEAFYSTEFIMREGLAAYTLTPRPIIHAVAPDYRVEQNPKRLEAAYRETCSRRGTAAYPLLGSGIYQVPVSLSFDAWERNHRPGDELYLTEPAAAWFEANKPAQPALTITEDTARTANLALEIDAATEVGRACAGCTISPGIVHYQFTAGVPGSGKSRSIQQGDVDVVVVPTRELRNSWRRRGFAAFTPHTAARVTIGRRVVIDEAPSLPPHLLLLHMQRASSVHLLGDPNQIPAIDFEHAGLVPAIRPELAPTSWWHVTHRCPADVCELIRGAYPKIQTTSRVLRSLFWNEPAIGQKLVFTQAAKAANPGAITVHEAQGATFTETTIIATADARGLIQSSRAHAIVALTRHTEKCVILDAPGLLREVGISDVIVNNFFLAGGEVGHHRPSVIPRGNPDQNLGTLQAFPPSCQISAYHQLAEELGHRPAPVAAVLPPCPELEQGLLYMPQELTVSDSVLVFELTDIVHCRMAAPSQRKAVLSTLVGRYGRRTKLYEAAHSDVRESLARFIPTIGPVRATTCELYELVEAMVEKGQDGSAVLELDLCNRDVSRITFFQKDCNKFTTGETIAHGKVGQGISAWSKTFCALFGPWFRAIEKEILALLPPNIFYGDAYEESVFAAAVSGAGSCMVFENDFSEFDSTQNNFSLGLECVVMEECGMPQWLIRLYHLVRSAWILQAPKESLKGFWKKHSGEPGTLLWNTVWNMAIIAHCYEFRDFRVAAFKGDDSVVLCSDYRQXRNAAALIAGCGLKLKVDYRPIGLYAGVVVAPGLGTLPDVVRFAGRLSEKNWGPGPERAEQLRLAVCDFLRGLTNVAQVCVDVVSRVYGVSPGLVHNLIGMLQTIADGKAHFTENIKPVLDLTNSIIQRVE
Assay: SPR, Biacore 8K, CM5 chip, protein immobilised by amine coupling, […] Langmuir fit
Format: binding
Settings: protein refolded from inclusion bodies; site (X/RdRp pocket-like cavity) assigned by docking

## C[C@H]1CC[C@@]2(OC1)O[C@H]1C[C@H]3[C@@H]4CC=C5C[C@@H](O[C@@H]6O[C@@H](C)[C@H](O)[C@@H](O)[C@H]6O)C[C@@H](O[C@@H]6O[C@H](C)[C@H](O)[C@H](O)[C@H]6O)[C@]5(C)[C@H]4CC[C@]3(C)[C@H]1[C@@H]2C [liriopesides B]
  Kd: 132 µM
